From patent publication US9284580B2 (priority 2010, dated 2016)
Read-outs that look alike come from different tables or passages of the source.

Legend:
P. putida = conditions: several strains of P. putida; cited from earlier work
[1] = test system: C. beijerinckii ATCC 55025
From the text: Cell growth was monitored by measuring the optical density at 600 nm (OD600) of the culture broth.

E. coli = conditions: 2% (v/v) butanol; cited from earlier work
S. cerevisiae strains = conditions: 1% (v/v) butanol; most S. cerevisiae strains; cited from earlier work

For butanol, the tolerated butanol concentration (P. putida) is listed as “up to 6 % (w/v)”, the growth rate reduction ([1]; 1% (v/v) butanol) is listed as about 20% and the growth rate reduction ([1]; 1.5% (v/v) butanol) is listed as about 85%. The cell growth ([1]; 2% (v/v) butanol, no cell growth even after 10 days incubation) was “completely inhibited”, the growth (E. coli) was “no growth was observed” and the “relative specific growth rate” value (S. cerevisiae strains) was 60%.
